Measurements published in ChEMBL document CHEMBL5108059, “Discovery of 2-Methyl-2-(4-(2-methyl-8-(1H-pyrrolo[2,3-b]pyridin-6-yl)-1H-naphtho[1,2-d]imidazol-1-yl)phenyl)propanenitrile as a Novel PI3K/mTOR Inhibitor with Enhanced Antitumor Efficacy In Vitro and In Vivo” (J Med Chem, 2022).
The source made the active and inactive calls. The calls are words filed in the database; no cut-off is given here.

How the values were obtained:
[1] = target: Phosphatidylinositol 4,5-bisphosphate 3-kinase catalytic subunit beta isoform (Homo sapiens, UniProt P42338); experiment: Inhibition of PI3Kbeta (unknown origin) using PIP2 as substrate incubated for 1 hr in presence of ATP by Kinase Glo luminescence assay
[2] = test system: HeLa; experiment: Induction of apoptosis in human HeLa cells assessed as late apoptotic cells at 0.15625 uM incubated for 36 hrs by Annexin V-FITC/PI staining based flow cytometric analysis (reference value: 1.4 %); type: functional; conditions: 0.1562 µM
[3] = target: T1, Phosphatidylinositol 4,5-bisphosphate 3-kinase catalytic subunit delta isoform (Homo sapiens, UniProt O00329); experiment: Inhibition of PI3Kdelta (unknown origin) using PIP2 as substrate incubated for 2 hrs in presence of ATP by Kinase Glo luminescence assay
T1 sequence (O00329 whole entry): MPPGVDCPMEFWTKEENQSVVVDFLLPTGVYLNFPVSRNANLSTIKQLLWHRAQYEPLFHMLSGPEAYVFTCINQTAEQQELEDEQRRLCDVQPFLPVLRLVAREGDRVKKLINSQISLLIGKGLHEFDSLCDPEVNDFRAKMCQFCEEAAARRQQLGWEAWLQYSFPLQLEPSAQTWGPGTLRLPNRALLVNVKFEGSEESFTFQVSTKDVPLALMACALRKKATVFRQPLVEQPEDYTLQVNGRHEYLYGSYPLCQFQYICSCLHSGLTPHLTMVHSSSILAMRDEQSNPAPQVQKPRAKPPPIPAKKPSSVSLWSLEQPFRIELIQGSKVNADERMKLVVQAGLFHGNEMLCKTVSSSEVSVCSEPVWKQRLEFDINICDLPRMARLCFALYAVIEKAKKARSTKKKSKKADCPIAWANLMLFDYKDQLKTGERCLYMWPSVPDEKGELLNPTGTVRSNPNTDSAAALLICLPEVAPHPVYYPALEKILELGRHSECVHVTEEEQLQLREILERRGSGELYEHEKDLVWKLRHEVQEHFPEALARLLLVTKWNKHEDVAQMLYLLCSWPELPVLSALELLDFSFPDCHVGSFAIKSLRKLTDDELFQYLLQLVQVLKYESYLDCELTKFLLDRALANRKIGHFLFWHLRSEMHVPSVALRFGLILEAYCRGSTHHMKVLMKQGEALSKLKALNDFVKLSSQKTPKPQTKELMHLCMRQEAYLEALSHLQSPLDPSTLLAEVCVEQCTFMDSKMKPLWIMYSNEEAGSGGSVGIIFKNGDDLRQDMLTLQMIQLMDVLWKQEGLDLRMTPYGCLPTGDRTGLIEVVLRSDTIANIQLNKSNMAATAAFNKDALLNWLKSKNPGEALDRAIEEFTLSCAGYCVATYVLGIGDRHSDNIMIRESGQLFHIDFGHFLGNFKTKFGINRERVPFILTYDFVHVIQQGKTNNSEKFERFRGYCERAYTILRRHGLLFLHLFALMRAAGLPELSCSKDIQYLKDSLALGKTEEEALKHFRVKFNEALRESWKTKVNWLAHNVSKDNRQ

[4] = test system: HeLa; experiment: Induction of apoptosis in human HeLa cells assessed as viable cells at 0.3125 uM incubated for 36 hrs by Annexin V-FITC/PI staining based flow cytometric analysis (reference value: 96.14 %); type: functional; conditions: read-out: Activity
[5] = test system: HT-29; experiment: Antiproliferative activity against human HT-29 cells with PIK3CA mutation assessed as inhibition of cell growth incubated for 48 to 72 hrs by MTT assay; type: functional, cell-based
[6] = test system: HeLa; experiment: Inhibition of PI3K/mTOR signalling pathway in human HeLa cells assessed as inhibition of Akt phosphorylation at Thr308 residue incubated for 24 hrs by Western blot analysis; type: cell-based; conditions: dose 0.3125-2.5 µM, DDE = dose-dependent effect
[7] = test system: HeLa; experiment: Induction of apoptosis in human HeLa cells assessed as dead cells at 1.25 uM incubated for 36 hrs by Annexin V-FITC/PI staining based flow cytometric analysis (reference value: 0.44 %); type: functional
[8] = test system: HeLa; experiment: Induction of apoptosis in human HeLa cells assessed as viable cells at 1.25 uM incubated for 36 hrs by Annexin V-FITC/PI staining based flow cytometric analysis (reference value: 96.14 %); type: functional; conditions: read-out: Activity
[9] = test system: HCT-15; experiment: Antiproliferative activity against human HCT-15 cells with PIK3CA mutation assessed as inhibition of cell growth incubated for 48 to 72 hrs by MTT assay; type: functional, cell-based
[10] = AUC (0 to infinity) in Sprague-Dawley rat at 10 mg/kg, po measured for 24 hrs by LC-MS/MS analysis; type: ADME, organism-based; design: time 24 hrs, dose 10 mg/kg, route po; conditions: in vivo
[11] = test system: HeLa; experiment: Induction of apoptosis in human HeLa cells assessed as early apoptotic cells at 0.625 uM incubated for 36 hrs by Annexin V-FITC/PI staining based flow cytometric analysis (reference value: 2.02 %); type: functional
[12] = test system: HeLa; experiment: Induction of apoptosis in human HeLa cells assessed as early apoptotic cells at 0.3125 uM incubated for 36 hrs by Annexin V-FITC/PI staining based flow cytometric analysis (reference value: 2.02 %); type: functional
[13] = Toxicity in BALB/c nude mouse xenografted with human HeLa cells assessed as reduction in body weight at 15 to 60 mg/kg, IG administered daily for 30 days and measured every 2 days; type: organism-based; conditions: in vivo, po, 720 h, dose 15-60 mg/kg, time 30 day
[14] = test system: HeLa; experiment: Induction of apoptosis in human HeLa cells assessed as dead cells at 2.5 uM incubated for 36 hrs by Annexin V-FITC/PI staining based flow cytometric analysis (reference value: 0.44 %); type: functional
[15] = test system: HeLa; experiment: Induction of apoptosis in human HeLa cells assessed as early apoptotic cells at 2.5 uM incubated for 36 hrs by Annexin V-FITC/PI staining based flow cytometric analysis (reference value: 2.02 %); type: functional
[16] = test system: HeLa; experiment: Induction of apoptosis in human HeLa cells assessed as early apoptotic cells at 1.25 uM incubated for 36 hrs by Annexin V-FITC/PI staining based flow cytometric analysis (reference value: 2.02 %); type: functional
[17] = test system: SW-620; experiment: Antitumor activity against human SW620 cells xenografted in BALB/c nude mouse assessed as tumor growth inhibition at 30 mg/kg, IG administered daily for 30 days and measured every 2 days relative to control; type: functional; conditions: SW-620, po, 720 h, time 30 day, read-out: TGI
[18] = target: DNA-dependent protein kinase catalytic subunit (Homo sapiens) (UniProt P78527); experiment: Inhibition of DNA-PK (unknown origin) at 1 uM
[19] = test system: HeLa; experiment: Induction of apoptosis in human HeLa cells assessed as late apoptotic cells at 1.25 uM incubated for 36 hrs by Annexin V-FITC/PI staining based flow cytometric analysis (reference value: 1.4 %); type: functional
[20] = target: Phosphatidylinositol 4,5-bisphosphate 3-kinase catalytic subunit gamma isoform (Homo sapiens, UniProt P48736); experiment: Inhibition of PI3Kgamma (unknown origin) using PIP2 as substrate incubated for 2 hrs in presence of ATP by Kinase Glo luminescence assay
[21] = Oral bioavailability in Sprague-Dawley rat at 10 mg/kg measured for 24 hrs by LC-MS/MS analysis; type: ADME, organism-based; conditions: in vivo
[22] = Volume of distribution at steady state in Sprague-Dawley rat at 1 mg/kg, iv measured for 24 hrs by LC-MS/MS analysis; type: ADME, organism-based; conditions: in vivo, read-out: Vdss

Phosphatidylinositol 4,5-bisphosphate 3-kinase catalytic subunit gamma isoform, sequence (P48736 whole entry, canonical isoform): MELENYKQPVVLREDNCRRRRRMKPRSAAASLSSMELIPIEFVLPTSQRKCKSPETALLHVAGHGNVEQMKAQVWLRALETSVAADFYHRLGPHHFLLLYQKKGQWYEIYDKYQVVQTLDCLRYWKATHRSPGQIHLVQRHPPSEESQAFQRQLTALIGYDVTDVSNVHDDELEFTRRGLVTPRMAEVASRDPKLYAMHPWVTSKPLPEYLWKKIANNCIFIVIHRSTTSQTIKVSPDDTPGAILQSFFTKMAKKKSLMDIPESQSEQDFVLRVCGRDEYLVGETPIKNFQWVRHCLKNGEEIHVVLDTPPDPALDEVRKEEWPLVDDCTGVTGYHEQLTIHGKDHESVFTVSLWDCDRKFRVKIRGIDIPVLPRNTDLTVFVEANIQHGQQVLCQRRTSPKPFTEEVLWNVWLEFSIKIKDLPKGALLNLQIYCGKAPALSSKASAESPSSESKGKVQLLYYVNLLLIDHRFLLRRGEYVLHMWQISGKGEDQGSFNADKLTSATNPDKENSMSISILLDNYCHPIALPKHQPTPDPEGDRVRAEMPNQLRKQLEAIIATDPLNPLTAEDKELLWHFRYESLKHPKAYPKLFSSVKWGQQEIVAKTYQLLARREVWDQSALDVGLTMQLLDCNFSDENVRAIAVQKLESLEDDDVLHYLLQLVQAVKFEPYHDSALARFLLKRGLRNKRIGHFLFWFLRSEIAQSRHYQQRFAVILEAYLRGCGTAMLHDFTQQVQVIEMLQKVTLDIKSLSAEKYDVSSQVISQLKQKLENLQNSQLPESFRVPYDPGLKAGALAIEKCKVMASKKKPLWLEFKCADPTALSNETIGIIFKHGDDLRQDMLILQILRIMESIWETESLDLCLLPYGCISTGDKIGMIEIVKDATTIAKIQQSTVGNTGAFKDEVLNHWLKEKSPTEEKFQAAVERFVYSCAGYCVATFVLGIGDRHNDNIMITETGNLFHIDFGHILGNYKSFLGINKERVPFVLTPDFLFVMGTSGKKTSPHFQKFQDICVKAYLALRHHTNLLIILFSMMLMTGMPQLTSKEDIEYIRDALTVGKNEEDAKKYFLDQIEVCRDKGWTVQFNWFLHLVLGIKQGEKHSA
Phosphatidylinositol 4,5-bisphosphate 3-kinase catalytic subunit beta isoform, sequence (P42338 whole entry, canonical isoform): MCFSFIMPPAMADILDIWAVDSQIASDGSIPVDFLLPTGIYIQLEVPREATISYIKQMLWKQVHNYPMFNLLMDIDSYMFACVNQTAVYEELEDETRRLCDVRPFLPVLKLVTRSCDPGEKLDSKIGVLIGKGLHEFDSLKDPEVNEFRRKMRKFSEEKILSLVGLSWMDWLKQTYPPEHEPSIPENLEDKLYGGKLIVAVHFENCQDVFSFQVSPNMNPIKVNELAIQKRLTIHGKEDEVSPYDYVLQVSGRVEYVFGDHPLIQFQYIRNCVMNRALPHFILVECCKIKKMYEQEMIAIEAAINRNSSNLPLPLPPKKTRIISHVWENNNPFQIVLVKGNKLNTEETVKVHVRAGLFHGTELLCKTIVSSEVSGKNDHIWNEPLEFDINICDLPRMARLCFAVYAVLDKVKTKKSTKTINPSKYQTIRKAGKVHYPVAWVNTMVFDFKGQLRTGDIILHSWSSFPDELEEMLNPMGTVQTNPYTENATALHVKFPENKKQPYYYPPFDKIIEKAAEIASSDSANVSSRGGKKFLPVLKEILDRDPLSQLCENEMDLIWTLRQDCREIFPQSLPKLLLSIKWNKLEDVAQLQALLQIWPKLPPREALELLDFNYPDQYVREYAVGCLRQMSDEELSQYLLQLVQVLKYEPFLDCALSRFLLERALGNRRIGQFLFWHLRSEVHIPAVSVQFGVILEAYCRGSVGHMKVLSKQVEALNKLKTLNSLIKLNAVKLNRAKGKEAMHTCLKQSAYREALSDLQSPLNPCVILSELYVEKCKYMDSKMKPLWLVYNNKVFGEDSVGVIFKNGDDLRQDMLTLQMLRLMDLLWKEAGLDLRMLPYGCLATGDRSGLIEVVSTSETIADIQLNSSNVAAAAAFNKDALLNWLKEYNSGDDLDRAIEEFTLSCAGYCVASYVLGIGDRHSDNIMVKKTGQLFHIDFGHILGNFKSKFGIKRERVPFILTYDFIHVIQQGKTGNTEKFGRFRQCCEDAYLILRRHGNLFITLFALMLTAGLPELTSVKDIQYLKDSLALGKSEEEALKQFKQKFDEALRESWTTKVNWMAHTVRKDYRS

Cc1nc2cnc3ccc(-c4cnc5[nH]ccc5c4)cc3c2n1-c1ccc(C(C)(C)C#N)nc1
IC50 [1]: 108 nM
Activity [2]: 1.92%
IC50 [3]: 4.6 nM
viability at 0.3125 µM [4]: 89.9%
IC50 [5]: 250 nM
inhibition [6]: Dde
Activity [7]: 7.4%
viability at 1.25 µM [8]: 41.2%
IC50 [9]: 170 nM
AUC [10]: 7620 ng·h/mL
Activity [11]: 18.32%
Activity [12]: 6.23%
Activity [13]: Non-Toxic
Activity [14]: 6.13%
Activity [15]: 27.18%
Activity [16]: 26.11%
inhibition in vivo at 30 mg/kg [17]: 70.8%
inhibition [18]: Active
Activity [19]: 23.32%
IC50 [20]: 79.3 nM
bioavailability [21]: 76.8%
Vd [22]: 1.53 L/kg
